From PubChem BioAssay AID336 (DTP/NCI, 2004)
Several values for one entry are separate records, joined by “and”; a condition that tells them apart may be missing. Equal values may be shown once. Toxic doses and inconclusive results are not listed.

Test system: BDF1 mice, P388/VCR leukemia ip, median survival T/C
Experiment: NCI In Vivo Anticancer Drug Screen. Data for tumor model P388 Leukemia resistant to Vincristine; NSC 67574 (intraperitoneal) in B6D2F1 (BDF1) mice
Conditions: endpoint: median survival time, higher = longer survival
Procedure: The antitumor activity of compounds was measured in mice bearing transplantable tumors. Survival or tumor size were measured and the results are expressed as the measurement made in the treated group (T) divided by the measurement made in the vehicle treated control group (C). The tumor model used in this assay is P388 Leukemia resistant to Vincristine; NSC 67574 (intraperitoneal) in B6D2F1 (BDF1) mice

[1] = dose: 64.0 mg/kg/injection, schedule: Q01DX010 (ip), vehicle: saline
[2] = dose: 8.0 mg/kg/injection, schedule: Q01DX010 (ip), vehicle: saline

**Q.** Which results are given for CC[C@H]1CN2CCc3cc(OC)c(OC)cc3[C@@H]2C[C@@H]1C[C@@H]1c2cc(OC)c(OC)cc2CCN1CCN(CCCl)CCCl?
**A.** T/C (dose: 6.48 mg/kg/injection, schedule: Q04DX003 (ip), vehicle: saline with Tween-80): 107 % of control; T/C (dose: 10.8 mg/kg/injection, schedule: Q04DX003 (ip), vehicle: saline with Tween-80): 111 % of control

**Q.** What does the source list for Nc1cc(C(=O)Nc2ccc(C3=NCCN3)cc2)cc(C(=O)Nc2ccc(C3=NCCN3)cc2)c1?
**A.** T/C (dose: 32.0 mg/kg/injection, schedule: Q01DX010 (ip), vehicle: saline): 156 % of control; T/C [1]: 165 % of control

**Q.** For C=CC(CN1CC1)OC(C)=O (configuration not stated), which T/C (dose: 2.0 mg/kg/injection, schedule: Q01DX010 (ip), vehicle: saline) is on record?
**A.** Its T/C is 116 % of control.

**Q.** And the T/C [2]?
**A.** The T/C was 123 % of control.

**Q.** With O=C(Nc1ccc(C2=NCCN2)cc1)c1cccc(C(=O)Nc2ccc(C3=NCCN3)cc2)c1 as the molecule, how does the T/C [2] read?
**A.** The T/C was 118 % of control.

**Q.** And the T/C (dose: 16.0 mg/kg/injection, schedule: Q01DX010 (ip), vehicle: saline)?
**A.** The T/C was 111 % of control.

**Q.** And the T/C [1]?
**A.** The T/C was 158 % of control.

**Q.** How did the T/C (dose: 125.0 mg/kg/injection, schedule: Q01DX010 (ip), vehicle: saline) turn out when O=CCC(O)C(O)C(O)CO (configuration not stated) was run?
**A.** The T/C was 88 % of control.

**Q.** And the T/C (dose: 250.0 mg/kg/injection, schedule: Q01DX010 (ip), vehicle: saline)?
**A.** Its T/C is 88 % of control and 92 % of control.

**Q.** And the T/C (dose: 500.0 mg/kg/injection, schedule: Q01DX010 (ip), vehicle: saline)?
**A.** The T/C was 92 % of control and 100 % of control.
